This note sets out measurements from patent US4156011A, “Sulphur- and oxygen-containing diaryl compounds” (priority 1974, dated 1979).

Where a name gives a salt, the structure may show the parent alone. Read-outs that look alike come from different tables or passages of the source.

The subject of data set [1] is blood platelet aggregation. As to the kind of experiment: Anti-aggregation action in rats (graded / in words). It counts as in vivo. Also noted: key to Anti-aggregation action: -: zero activity; +: significant activity; ++: intense activity; +++: very intense activity. The settings on record: for anti-aggregation activity (in words): results of Table IV.
The nature of data set [2]: Solubility of the isolated product.
Data set [3] can be described thus: Reduction of lipids and cholesterol in rats treated orally. It counts as in vivo. To be noted: for inhibition in vivo at 50 mg/kg / inhibition in vivo at 20 mg/kg: Rattus norvegicus; for inhibition in vivo at 50 mg/kg: 96 h, oral 50 mg/kg; for inhibition in vivo at 20 mg/kg: 72 h, oral 20 mg/kg, 3 days.
A further data set is described as follows: Clinical tests in man. It counts as in vivo. The procedure: The clinical tests have made it possible to confirm the pharmacological tests. Thus, in man, CRL 40,293 (Example 23) in the form of gelatine-coated pills containing 400 mg of active ingredient administered at the rate of 2 such pills twice daily has given good results in the treatment of circulatory complaints and especially of lipid disturbances.
CRL 40,386 (Example 8) has been used in man for the treatment of hyperlipidaemia in the form of gelatine-coated pills each containing 300 mg of active ingredient at the rate of 2 to 6 such pills per day.

For data set [4], the system named is platelets (aggregation induced by collagen). As to the kind of experiment: Anti-aggregation action, platelet aggregation induced by collagen. It counts as in vivo, male Wistar rats. The settings on record: oral 100 mg/kg, 4 days; collagen/acetic acid diluted 1/10. The protocol: (a) by collagen: the inhibition of aggregation (which corresponds to the % transmission), the latency period and the speed; and
(§1) In Table IV which follows have been shown the results relating to the anti-aggregation action of some products on the blood of male Wistar rats, the aggregating agents used being collagen/acetic acid diluted 1/10, and ADP at 1 μM.

Data set [5] relates to platelets (aggregation induced by ADP). Description: Anti-aggregation action, platelet aggregation induced by ADP. It counts as in vivo, male Wistar rats. To be noted: oral 100 mg/kg, 4 days; for change in aggregation, ADP transmission: ADP at 1 μM. The procedure: (b) by ADP: the inhibition of aggregation (that is to say the % transmission).
as §1

Data set [6] can be described thus: Hypo-lipidaemic and hypo-cholesterolaemic action in rats on hyper-lipid diet. It counts as in vivo, Wistar rats. The settings on record: Rattus norvegicus, 0.1 g/kg in rats. The text has this:
A. a batch of rats receiving a normal diet (percentage inhibition=100%);
B. a batch of rats receiving a hyper-lipid diet (percentage inhibition=0%);
C. a batch of rats receiving the hyper-lipid diet B with a daily dose, of 0.1 g/kg, of a reference product having a lipidaemia-normalising action, namely Lipavlon [ethyl 2-(p-chlorophenoxy)-2-methyl-propionate];
D. a batch of rats receiving the hyper-lipid diet B with a daily dose, of 0.1 g/kg, of another product having a lipidaemia-normalising action, namely LL 1558 [1,10-bis-(2-hydroxyethyl-thio)-decane]; and
E. a batch of rats receiving the hyper-lipid diet B with a daily dose of 10 mg/kg and 25 mg/kg, where necessary, higher doses.
In Table III which follows have been shown the results relating to CRL 40,201 (the product of Example 17) and CRL 40,202 (the product of Example 18) in respect of the hypo-lipidaemic action and hypo-cholesterolaemic action.

A short description of data set [7]: Hypo-lipidaemic and hypo-cholesterolaemic action of other products (Table V). It counts as in vivo, rats. The settings on record: Rattus norvegicus, 96 h; for change in vivo at 100 mg/kg: oral 100 mg/kg for 4 days; for change in vivo at 200 mg/kg: oral 200 mg/kg for 4 days. The text has this:
The results of the anti-aggregation test and of the hypo-[…] action and hypo-cholesterolaemic action tests of other products of the invention have been […] Table V which follows, the code used being the following (for each dose shown): […]

[8] abbreviates: read-out: Total lipids (change).
The mark [9] stands for this setting: tablet of 250 to 500 mg, to prevent cardiovascular accidents, especially coronary insufficiency.

`CC(CNCCO)Sc1ccc(Oc2ccc(Cl)cc2)cc1` (racemic) [CRL 40,283, (±)-N-Hydroxyethyl-2-[4-(4-chlorophenoxy)-phenylthio]-1-propylamine]: the Anti-aggregation action entry in data set [1] (oral 200 mg/kg for 4 days) is listed as “+”. The “solubility in aqueous hydrochloric acid solution (in words)” value in data set [2] (aqueous hydrochloric acid, pH 3 to pH 7) is “soluble in an aqueous hydrochloric acid solution at between pH 3 and pH 7”.
Consider `CC(CO)Oc1ccc(Oc2ccc(Cl)cc2)cc1` (racemic) [CRL 40,300, (±)-2-[4-(4-Chlorophenoxy)-phenoxy]-1-propanol], for which the Anti-aggregation action result in data set [1] (oral 100 mg/kg for 4 days) is “+”. In data set [2] (water), the “solubility in water (in words)” value is given as “insoluble in water”.
Turning to `CC(COC(=O)COc1ccc(Sc2ccc(Cl)cc2)cc1)SCCCCCCCCCCSC(C)COC(=O)COc1ccc(Sc2ccc(Cl)cc2)cc1` (racemic) [CRL 40,389, (±)-2,15-Dimethyl-3,14-dithia-1,16-hexadecyl di-[p-(p-chlorophenylthio)-phenoxy-acetate]], the inhibition in vivo at 50 mg/kg in data set [3] (4 days, read-out: reduction in the cholesterol) is 35%; in data set [3] (4 days, read-out: reduction in the lipids) it was 35%. Moreover, the tolerance in man result in the data set “Clinical tests in man” (capsules or gelatine-coated pills of 500 mg, 2 to 4 per day) is “well tolerated”. Also, the treatment of hyperlipidaemia entry in “Clinical tests in man” (man, capsules or gelatine-coated pills of 500 mg, 2 to 4 per day) is on record as “efficient”.
Take `CC(COC(=O)C(C)(C)Sc1ccc(Oc2ccc(Cl)cc2)cc1)SCCCCCCCCCCSC(C)COC(=O)C(C)(C)Sc1ccc(Oc2ccc(Cl)cc2)cc1` (racemic) [CRL 40,414, (±)-2,15-Dimethyl-3,14-dithia-1,16-hexadecyl di-{2-[p-(p-chlorophenoxy)-phenylthio]-2-methylpropionate}]: the “reduction in the (total) lipids” value in data set [3] (oral 100 mg/kg, 4 days) stood at 12%. The treatment of hyperlipidaemia result in “Clinical tests in man” (man, gelatine-coated pills of 300 mg, 3 per day) is “used with success”.
For `CC(C)(CNCCO)Oc1ccc(Sc2ccc(Cl)cc2)cc1` [CRL 40,238, N-Hydroxyethyl-4-(4-chlorophenylthio)-phenoxy-isobutylamine hydrochloride], the “anti-aggregation activity (in words)” value in data set [1] is “the most interesting amongst them”. In addition, the “solubility in water (in words)” value in data set [2] (water) is reported as “insoluble in water”. For the same compound, in data set [4], the “change in aggregation, collagen, latency period” value (from here on “change … latency period”) was “+18%”; the “change in aggregation, collagen, speed” value was -52%; the “change in aggregation, collagen, transmission” value (shortened to “change … collagen, transmission”) is reported as -47%. Also, the “change in aggregation, ADP transmission” value in data set [5] is reported as -46%.
In the case of `O=C(O)CSc1ccc(Oc2ccc(Cl)cc2)cc1` [CRL 40,271, 4-(4-Chlorophenoxy)-phenylthioacetic acid], the “anti-aggregation activity (in words)” value in data set [1] is “the most interesting amongst them”. Moreover, in data set [4], the “change … latency period” value is listed as “+15%”; the “change in aggregation, collagen, speed” value was -60%; the “change … collagen, transmission” value is reported as -25%. For the same compound, in data set [6] (read-out: cholesterol inhibition), the inhibition at 100 mg/kg is 54%. Moreover, the inhibition at 100 mg/kg in data set [6] (read-out: total lipids inhibition) came out at 35%. Also, the tolerance in man entry in “Clinical tests in man” (gelatine-coated pill of 200 to 400 mg, 1 to 2 per day) is on record as “well tolerated”. Further, the “treatment of circulatory complaints due to hyperlipidaemias” value in “Clinical tests in man” (man, gelatine-coated pill of 200 to 400 mg, 1 to 2 per day) was “efficient”. In addition, the “change in aggregation, ADP transmission” value in data set [5] is reported as -28%.
On to `O=C(CSc1ccc(Oc2ccc(Cl)cc2)cc1)NCCO` [CRL 40,272, N-Hydroxyethyl-4-(4-chlorophenoxy)-phenylthioacetamide], for which, in data set [4], the “change … latency period” value is “+16%” and the “change … collagen, transmission” value was found to be 0%. In data set [5], the “change in aggregation, ADP transmission” value was -20%.
With `OCCNCCSc1ccc(Oc2ccc(Cl)cc2)cc1` [CRL 40,274, N-Hydroxyethyl-2-[4-(4-chlorophenoxy)phenylthio]-ethylamine], the “solubility in water (in words)” value in data set [2] (water) was “insoluble in water”. Besides, the “change in aggregation, collagen, speed” value in data set [4] turned out to be 0%. Also, in data set [5], the “change in aggregation, ADP transmission” value is -20%.
Turning to `CC(C)(CO)Sc1ccc(Oc2ccc(Cl)cc2)cc1` [CRL 40,276, 4-(4-Chlorophenoxy)-phenylthio-isobutanol], in data set [4], the “change … latency period” value is listed as “+25%”; the “change in aggregation, collagen, speed” value is -13%; the “change … collagen, transmission” value is on record as -31%. Further, in data set [5], the “change in aggregation, ADP transmission” value is -20%.
Turning to `Cl.OCCNCCOc1ccc(Oc2ccc(Cl)cc2)cc1` [CRL 40,295, N-Hydroxyethyl-2-[4-(4-chlorophenoxy)-phenoxy]-1-ethylamine hydrochloride], the Anti-aggregation action entry in data set [1] (oral 100 mg/kg for 4 days) and in data set [1] (oral 200 mg/kg for 4 days) was “+++” in each case. The compound also yielded a solubility in data set [2] (water) of 200 mg/mL. In addition, the change in vivo at 100 mg/kg in data set [7] (read-out: Cholesterol (change)) was -32%; in data set [7] (setting [8]) it was -19%. For the same compound, the change in vivo at 200 mg/kg in data set [7] (read-out: Cholesterol (change)) is -37%; in data set [7] (setting [8]), -28%. The tolerance in man result in “Clinical tests in man” (setting [9]) is given as “well tolerated”.
For the compound `CC(C)(COS(C)(=O)=O)Oc1ccc(Oc2ccc(Cl)cc2)cc1` [CRL 40,312, 4-(4-Chlorophenoxy)-phenoxy-isobutyl mesylate], the Anti-aggregation action entry in data set [1] (oral 100 mg/kg for 4 days) is given as “+”. The “solubility in water (in words)” value in data set [2] (water) is on record as “insoluble in water”.
Turning to `Cl.NCCOc1ccc(Oc2ccc(Cl)cc2)cc1` [CRL 40,317, 2-[4-(4-Chlorophenoxy)-phenoxy]-ethylamine hydrochloride], the Anti-aggregation action result in data set [1] (oral 100 mg/kg for 4 days) is “+”. The “solubility in water (in words)” value in data set [2] (water) is “soluble in water”. Also, the change in vivo at 100 mg/kg in data set [7] (setting [8]) was -37%. The tolerance in man result in the data set “Clinical tests in man” (setting [9]) was “well tolerated”.
`Clc1ccc(Oc2ccc(OCC3=NCCN3)cc2)cc1` [CRL 40,322, 2-[4-(4-Chlorophenoxy)-phenoxy]-methyl-2-imidazoline hydrochloride]: in data set [1] (oral 100 mg/kg for 4 days), the Anti-aggregation action result is given as “+”. Further, the “solubility in hot water (in words)” value in data set [2] (hot water, hydrochloride) is reported as “soluble in hot water”.
As to `CCN(CC)CCOc1ccc(Oc2ccc(Cl)cc2)cc1.Cl` [CRL 40,330, N,N-Diethyl-2-[4-(4-chlorophenoxy)-phenoxy]-ethylamine hydrochloride], the Anti-aggregation action entry in data set [1] (oral 100 mg/kg for 4 days) was “+”. Besides, the change in vivo at 100 mg/kg in data set [7] (read-out: Cholesterol (change)) and in data set [7] (setting [8]) was -13% in each case.
Consider `CC(C)(O)COc1ccc(Oc2ccc(Cl)cc2)cc1` [CRL 40,332, 1-[4-(4-Chlorophenoxy)-phenoxy]-2-methyl-2-propanol], for which, in data set [1] (oral 100 mg/kg for 4 days), the Anti-aggregation action entry is recorded as “+”. Moreover, the “solubility in water (in words)” value in data set [2] (water) was “insoluble in water”.
Regarding `O=C(O)COc1ccc(Oc2ccc(Cl)cc2)cc1` [CRL 40,333, 4-(4-Chlorophenoxy)-phenoxyacetic acid], in data set [1] (oral 100 mg/kg for 4 days), the Anti-aggregation action result was “++”. Also, the “solubility in water (in words)” value in data set [2] (water) is recorded as “insoluble in water”. Further, the figures for the change in vivo at 100 mg/kg in data set [7] (read-out: Cholesterol (change)) and in data set [7] (setting [8]) were -20% and -24%, respectively.
The corresponding values for `CCN(CC)CCNC(=O)COc1ccc(Oc2ccc(Cl)cc2)cc1.Cl` [CRL 40,334, N-(2-Diethylaminoethyl)-4-(4-chlorophenoxy)-phenoxy-acetamide hydrochloride] are “+++”, “soluble in water”, -17% and -17%.
In the case of `CC(C)(Sc1ccc(Sc2ccc(Cl)cc2)cc1)C(=O)OCCSCCCCCCCCCCSCCOC(=O)C(C)(C)Sc1ccc(Sc2ccc(Cl)cc2)cc1` [CRL 40,402, 3,14-Dithia-1,16-hexadecyl di-{2-[p-(p-chlorophenylthio)-phenylthio]-2-methylpropionate}], the inhibition in vivo at 20 mg/kg in data set [3] (read-out: reduction in the cholesterol) came out at 14%; in data set [3] (read-out: reduction in the lipids), 17%. For the same compound, the “cholesterol content and lipids content (in words)” value in data set [3] (oral 10, 20 and 50 mg/kg, 3 to 5 days) was “a reduction in the cholesterol content and lipids content is observed”. In addition, the inhibition at 100 mg/kg in data set [5] (Rattus norvegicus, Platelet, 96 h, read-out: inhibition of transmission (ADP test)) is 25%.

One may read the inhibition as the drop in the measured response relative to a control, in per cent. A word on the solubility: it is the dissolved amount per volume that the medium holds.
